Measured values from patent US6509369B2, “Anti-inflammatory compounds” (Ortho-McNeil Pharmaceutical, Inc., priority 1997, dated 2003).

Assays:
[1] = target: T1, human glucocorticoid receptor (hGR) (Homo sapiens, UniProt P04150); assay: human glucocorticoid receptor binding assay (displacement of 3(H) Triamcinolone acetonide)
T1 construct: made in house; host or cells: Sf21 insect cells infected with baculovirus hGR, OR IM9 lymphoblast cell line (endogenous hGR)
T1 sequence (P04150 1-777): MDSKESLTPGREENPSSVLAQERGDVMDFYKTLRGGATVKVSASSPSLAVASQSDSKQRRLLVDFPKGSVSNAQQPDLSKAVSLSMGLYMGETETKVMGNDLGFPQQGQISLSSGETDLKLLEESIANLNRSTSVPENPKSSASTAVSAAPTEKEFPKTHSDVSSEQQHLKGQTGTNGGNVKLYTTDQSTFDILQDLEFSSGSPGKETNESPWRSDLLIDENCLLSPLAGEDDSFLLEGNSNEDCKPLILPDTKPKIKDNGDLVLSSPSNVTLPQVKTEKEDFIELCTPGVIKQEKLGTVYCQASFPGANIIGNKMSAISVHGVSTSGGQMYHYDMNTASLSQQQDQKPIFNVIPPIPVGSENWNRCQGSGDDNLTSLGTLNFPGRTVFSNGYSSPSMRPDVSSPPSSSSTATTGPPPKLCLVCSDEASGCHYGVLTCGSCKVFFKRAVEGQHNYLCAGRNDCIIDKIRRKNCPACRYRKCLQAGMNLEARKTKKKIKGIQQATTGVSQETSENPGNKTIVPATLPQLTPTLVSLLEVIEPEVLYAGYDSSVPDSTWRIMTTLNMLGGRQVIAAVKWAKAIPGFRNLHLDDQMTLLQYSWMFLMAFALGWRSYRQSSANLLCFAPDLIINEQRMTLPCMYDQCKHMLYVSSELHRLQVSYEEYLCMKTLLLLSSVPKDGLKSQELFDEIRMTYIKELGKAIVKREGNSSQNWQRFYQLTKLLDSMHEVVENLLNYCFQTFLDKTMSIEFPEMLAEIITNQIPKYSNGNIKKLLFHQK

[2] = system: human progesterone receptor (hPR); assay: human progesterone receptor binding assay (displacement of 3(H) R5020 Promegestone)
Method: A human progesterone receptor binding assay was performed in order to determine selectivity of the compounds, as follows. Human progesterone receptors were prepared from either insect cells (SF21) infected with baculovirus hPR A, or from a breast cancer cell line, T47D, which expresses high levels of endogenous hPR. The receptor binding reactions, with or without test compounds, were set up in 96-well microtiter plates which were previously siliconized with SIGMACOTE. The binding components, 3(H) R5020 Promegestone, a high affinity ligand for the progesterone receptors, glycerol/molybdate-containing buffer and unlabeled compounds were added to the wells using a combination of BIOMEK laboratory automation system and repeat pipettes. After overnight incubation, the samples were precipitated with polyethylene glycol and filtered through Whatman GF/F paper using a TOMTEK cell harvester. The filter mate with 96 samples were bound to a solid-phase scintillant and directly counted in the BETAPLATE counter. Only those compounds that were active in the human glucocorticoid receptor assay set forth in Example 30 were used for progesterone receptor binding to determine cross-reactivity profiles, if any. The activity of test compounds to displace 3(H) R5020 binding to hPR is expressed as percent inhibition at the two concentrations, 10^−6 and 10^−5 Molar.

[3] = system: oxazolone-induced ear swelling (MOCH) in albino male CD-1 mice; assay: mouse oxazolone-induced contact hypersensitization (MOCH) ear swelling; type: in vivo; conditions: for Oxazolone Ear swelling % Inhibition vs. Vehicle: topical mouse ear; for dose-related activity in the oxazolone model (in words) / topical antiinflammatory activity in the oxazolone model (in words): topical; for dose-related activity in the oxazolone model (in words): doses 0.1-3%; for topical antiinflammatory activity in the oxazolone model (in words): mouse ear
Outline: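 Male CD-1 mice aged 7–9 weeks were sensitised on the abdomen with 3% oxazolone on Day 0 and challenged on Day 5 with 2% oxazolone on the left ear. Compounds in ethanol/propylene glycol 70:30 were applied topically to that ear 1 h after challenge. At 24 h, the weight difference between 7 mm left and right ear biopsies gave the measure of inhibition.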

[4] = system: TPA-induced ear edema in albino male CD1 mice; assay: TPA (phorbol ester)-induced ear edema; type: in vivo; conditions: dose 1%, topical mouse ear, 5.5 hours after TPA
Method: Several triphenylpropanamide compounds of this invention, having varying affinities for the human glucocorticoid receptor, were tested for topical antiinflammatory activity in mouse ear inflammation models. […] Compounds having receptor affinities closer to hydrocortisone were as nearly active as hydrocortisone in suppressing mouse oxazolone-induced contact hypersensitization (MOCH) and phorbol ester-induced ear edema. The in vivo studies of this example were conducted as follows.
Albino male CD1 mice, 7-9 weeks old were used in this example. A 0.005% (w/v) TPA or 20% (w/v) arachidonic acid (AA) solution was made in acetone. A 20 μl volume of the TPA or AA was applied to the dorsal left ear of the mouse. Compounds of this invention were placed in a composition containing ethanol/propylene glycol at a ratio of 70:30 were applied to the left ear of each mouse in an amount of 20 μl immediately after application of the TPA or AA. The right ear was not treated. The mice were sacrificed by carbon dioxide inhalation 5.5 hours after administration of TPA and one hour after administration of AA, the left and right ears were removed and a 7 mm biopsy was removed from each ear and weighed. The difference in biopsy weights between the right and left ears was calculated. Antiinflammatory effects of compounds were evident as an inhibition of the increase in ear weight.

Row | SMILES | IC50 [1] [nM] | hPR % inh 10 μM [2] [%] | Oxazolone Ear swelling % Inhibition vs. Vehicle ([3]; Experiment 1, dose 0.1%) [%] | Oxazolone Ear swelling % Inhibition vs. Vehicle ([3]; Experiment 1, dose 0.3%) [%] | Oxazolone Ear swelling % Inhibition vs. Vehicle ([3]; Experiment 1, dose 1%) [%] | Oxazolone Ear swelling % Inhibition vs. Vehicle ([3]; Experiment 1, dose 3%) [%] | dose-related activity in the oxazolone model (in words) [3] | topical antiinflammatory activity in the oxazolone model (in words) [3] | % Inhibition of TPA Ear Edema vs. Vehicle [4] [%] | Oxazolone Ear swelling % Inhibition vs. Vehicle ([3]; Experiment 2, dose 0.1%) [%] | Oxazolone Ear swelling % Inhibition vs. Vehicle ([3]; Experiment 2, dose 0.3%) [%] | Oxazolone Ear swelling % Inhibition vs. Vehicle ([3]; Experiment 2, dose 1%) [%] | Oxazolone Ear swelling % Inhibition vs. Vehicle ([3]; Experiment 2, dose 3%) [%]
1 | O=C(Cc1cccs1)NCC(c1ccccc1)C(c1ccccc1)c1ccccc1 (centres unmarked) [Compound 29, N-(2-thiophrne)acetyl-2,3,3-triphenylpropylamine] | 8 | 28.3 | 4.3 | 34.7 | 49.9 | 66.5 | inhibited ear swelling in a dose-dependent manner | equiactive with hydrocortisone | 64.9 |  |  |  | 
2 | Cc1ccc(CC(=O)NCC(c2ccccc2)C(c2ccc(F)cc2)c2ccc(F)cc2)s1 (centres unmarked) [Compound 32] | 7 |  |  |  |  |  | inhibited ear swelling in a dose-dependent manner | equiactive with hydrocortisone | 60.0 | 11.2 | 18.95 | 31.45 | 36.5
3 | C[C@]12CCC(=O)C=C1CC[C@@H]1[C@@H]2[C@@H](O)C[C@@]2(C)[C@H]1CC[C@]2(O)C(=O)CO [hydrocortisone, reference compound] |  |  |  |  | 78.9 |  |  |  | 80.6 |  |  | 58.2 | 
